Experimental findings from PubChem BioAssay AID1259407 (Chemical Carcinogenesis Research Information System (CCRIS), 2018) are described below.

This series has as its system CCRIS mutagenicity, Ames/micronucleus/aberration tests. In words: CCRIS mutagenicity studies.

Structures are written as SMILES. Calls of active or inactive are those of the source. No rule for the calls is given here.

As for `C=CC1=C(C)C(/C=c2/[nH]/c(=C\c3[nH]c(/C=C4\NC(=O)C(C)=C4C=C)c(C)c3CCC(=O)O)c(CCC(=O)O)c2C)=NC1=O`, the mutagenic call is, setting by setting: (Test System: Ames Salmonella typhimurium, Strain/Indicator: TA98, Metabolic Activation: Liver, S-9, Method: Preincubation) “inactive; negative”; (Test System: Ames Salmonella typhimurium, Strain/Indicator: TA100, Metabolic Activation: Liver, S-9, Method: Preincubation) “inactive; negative”; (Test System: Ames Salmonella typhimurium, Strain/Indicator: TA100, Metabolic Activation: None, Method: Preincubation) “inactive; negative”; (Test System: Ames Salmonella typhimurium, Strain/Indicator: TA102, Metabolic Activation: Liver, S-9, Method: Preincubation) “inactive; negative”; (Test System: Ames Salmonella typhimurium, Strain/Indicator: TA102, Metabolic Activation: None, Method: Preincubation) “inactive; negative”.

With `COc1ccc(N(CCCl)CCCl)c2cc([N+](=O)[O-])oc12`, the mutagenic call (Test System: AMES SALMONELLA TYPHIMURIUM, Strain/Indicator: TA100(NR), Metabolic Activation: NONE, Method: STANDARD PLATE) is “inactive; negative”; the mutagenic call (Test System: AMES SALMONELLA TYPHIMURIUM, Strain/Indicator: TA100(NR), Metabolic Activation: RAT, LIVER, S-9, AROCLOR 1254, Method: STANDARD PLATE) was “active; positive”; the mutagenic call (Test System: AMES SALMONELLA TYPHIMURIUM, Strain/Indicator: TA100, Metabolic Activation: NONE, Method: STANDARD PLATE) was “active; positive”; the mutagenic call (Test System: AMES SALMONELLA TYPHIMURIUM, Strain/Indicator: TA100, Metabolic Activation: RAT, LIVER, S-9, AROCLOR 1254, Method: STANDARD PLATE) is “active; positive”.

In the case of `CCOCCCl`, the mutagenic call is, setting by setting: (Test System: AMES SALMONELLA TYPHIMURIUM, Strain/Indicator: TA98, Metabolic Activation: NONE, Method: PREINCUBATION) “inactive; negative”; (Test System: AMES SALMONELLA TYPHIMURIUM, Strain/Indicator: TA98, Metabolic Activation: RAT, LIVER, S-9, PHENOBARBITAL AND BETA-NAPHTHOFLAVONE, Method: PREINCUBATION) “inactive; negative”; (Test System: AMES SALMONELLA TYPHIMURIUM, Strain/Indicator: TA100, Metabolic Activation: NONE, Method: PREINCUBATION) “inactive; negative”; (Test System: AMES SALMONELLA TYPHIMURIUM, Strain/Indicator: TA100, Metabolic Activation: RAT, LIVER, S-9, PHENOBARBITAL AND BETA-NAPHTHOFLAVONE, Method: PREINCUBATION) “inactive; negative”; (Test System: AMES SALMONELLA TYPHIMURIUM, Strain/Indicator: TA102, Metabolic Activation: NONE, Method: PREINCUBATION) “inactive; negative”; (Test System: AMES SALMONELLA TYPHIMURIUM, Strain/Indicator: TA102, Metabolic Activation: RAT, LIVER, S-9, PHENOBARBITAL AND BETA-NAPHTHOFLAVONE, Method: PREINCUBATION) “inactive; negative”. Further, the mutagenic call by setting is: (Test System: AMES SALMONELLA TYPHIMURIUM, Strain/Indicator: TA104, Metabolic Activation: NONE, Method: PREINCUBATION) “active; positive”; (Test System: AMES SALMONELLA TYPHIMURIUM, Strain/Indicator: TA104, Metabolic Activation: RAT, LIVER, S-9, PHENOBARBITAL AND BETA-NAPHTHOFLAVONE, Method: PREINCUBATION) “inactive; negative”; (Test System: AMES SALMONELLA TYPHIMURIUM, Strain/Indicator: TA1535, Metabolic Activation: NONE, Method: PREINCUBATION) “inactive; negative”; (Test System: AMES SALMONELLA TYPHIMURIUM, Strain/Indicator: TA1535, Metabolic Activation: RAT, LIVER, S-9, PHENOBARBITAL AND BETA-NAPHTHOFLAVONE, Method: PREINCUBATION) “inactive; negative”; (Test System: AMES SALMONELLA TYPHIMURIUM, Strain/Indicator: TA1537, Metabolic Activation: NONE, Method: PREINCUBATION) “inactive; negative”; (Test System: AMES SALMONELLA TYPHIMURIUM, Strain/Indicator: TA1537, Metabolic Activation: RAT, LIVER, S-9, PHENOBARBITAL AND BETA-NAPHTHOFLAVONE, Method: PREINCUBATION) “inactive; negative”. Also, the mutagenic call was “inactive; negative” (Test System: E. COLI, Strain/Indicator: WP2UVRA/PKM101, Metabolic Activation: NONE, Method: PREINCUBATION); “inactive; negative” (Test System: E. COLI, Strain/Indicator: WP2UVRA/PKM101, Metabolic Activation: RAT, LIVER, S-9, PHENOBARBITAL AND BETA-NAPHTHOFLAVONE, Method: PREINCUBATION); “inactive; negative” (Test System: E. COLI, Strain/Indicator: WP2UVRA, Metabolic Activation: NONE, Method: PREINCUBATION); “inactive; negative” (Test System: E. COLI, Strain/Indicator: WP2UVRA, Metabolic Activation: RAT, LIVER, S-9, PHENOBARBITAL AND BETA-NAPHTHOFLAVONE, Method: PREINCUBATION).

In the case of `CN(C)CCOc1ccc(/C(=C(/CCCl)c2ccccc2)c2ccccc2)cc1`, the mutagenic call (End Point: IN VITRO CHROMOSOMAL ABERRATIONS, Test System: SYRIAN HAMSTER EMBRYO (SHE) CELLS, Metabolic Activation: NONE) was “active; positive (ploidy changes)”.

For `c1cc2c3c(cccc3c1)-c1c-2c2ccccc2c2ccccc12`, the mutagenic call (Test System: HUMAN H1A1V2 CELLS, Strain/Indicator: TK LOCUS, Metabolic Activation: NONE, Method: SUSPENSION/PLATE) is “inactive; negative”.

For the compound `CSCCCCC(=NOS(=O)(=O)O)S[C@@H]1O[C@H](CO)[C@@H](O)[C@H](O)[C@H]1O`, the mutagenic call (End Point: IN VITRO MICRONUCLEUS, Test System: HUMAN T-LYMPHOCYTES, Metabolic Activation: NONE) is “inactive; negative”.
